Test results published in US20250195521A1 (Revolution Medicines, Inc., priority 2020, published 2025).
Like-named read-outs stand apart in the source and are kept apart here.

Tests used:
Type in all cases: cell-based, human
[1] = tested on: AsPC-1 (K-Ras G12D); assay: Potency assay: pERK
Procedure, shortened: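 pERK decrease measured after 4 h compound treatment at 37 °C (10 three-fold dilutions, duplicate wells), by either fixed-cell In-Cell Western with DRAQ5 counterstain or AlphaLISA on lysates. Signal fitted against log concentration with a four-parameter model to give IC50.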

[2] = tested on: NCI-H358 (K-Ras G12C); assay: CellTiter-Glo cell viability assay, H358
Description: (§1) Note—The following protocol describes a procedure for monitoring cell viability of K-Ras mutant cancer cell lines in response to a compound of the invention. Other RAS isoforms may be employed, though the number of cells to be seeded will vary based on cell line used.
(§2) Test compounds (132.5 nL) were directly dispensed into the assay plates containing cells. […] On day 5, assay plates and their contents were equilibrated to room temperature for approximately 30 minutes. […] Luminescence was measured using the PerkinElmer Enspire. Data were normalized by the following: (Sample signal/Avg. DMSO)*100. The data were fit using a four-parameter logistic fit.

[3] = tested on: AsPC-1 (K-Ras G12D); assay: CellTiter-Glo cell viability assay, AsPC-1; settings: read-out: AsPC-1 Cell Viability IC50
Description: as §1, §2

[4] = Homo sapiens, ASPC1, read-out: pERK EC50
[5] = Homo sapiens, NCI-H358, 120 h, read-out: H358 Cell Viability IC50, K-Ras G12C, 5-day treatment

CCn1c(-c2cccnc2[C@H](C)OC)c2c3cc(ccc31)-c1cc(O)cc(c1)C[C@H](NC(=O)[C@H](C(C)C)N(C)C(=O)CN(C)C(=O)[C@@H]1N[C@@H]1C1CC1)C(=O)N1CCC[C@H](N1)C(=O)OCC(C)(C)C2 [Example 133, (2R,3R)-3-cyclopropyl-N-(2-(((2S)-1-(((6^3S,4S)-1^1-ethyl-25-hydroxy-1^2-(2-((S)-1-methoxyethyl)pyridin-3-yl)-10,10-dimethyl-5,7-dioxo-61,62,63,64,65,66-hexahydro-1^1H-8-oxa-1 (5,3)-indola-6 (1,3)-pyridazina-2 (1,3)-benzenacycloundecaphane-4-yl)amino)-3-methyl-1-oxobutan-2-yl) (methyl)amino)-2-oxoethyl)-N-methylaziridine-2-carboxamide]
EC50 [1, 4]: < 5 µM
IC50 [2, 5]: 10 to 100 nM
IC50 ([3]; Homo sapiens, ASPC1, 120 h): 10 to 100 nM

CCn1c(-c2cccnc2[C@H](C)OC)c2c3cc(ccc31)-c1cc(O)cc(c1)C[C@H](NC(=O)[C@H](C(C)C)N(C)C(=O)CN(C)C(=O)[C@H]1N[C@@H]1C1CC1)C(=O)N1CCC[C@H](N1)C(=O)OCC(C)(C)C2 [Example 135]
EC50 ([1]; read-out: pERK EC50, AsPC-1 KRAS G12D): < 5 µM
IC50 ([2]; read-out: H358 Cell Viability IC50, K-Ras G12C, 5-day treatment): 10 to 100 nM
IC50 ([3]; Homo sapiens, ASPC1, 120 h): 100 to 1000 nM

CCn1c(-c2cccnc2[C@H](C)OC)c2c3cc(ccc31)-c1cc(O)cc(c1)C[C@H](NC(=O)[C@H](C(C)C)N(C)C(=O)CN(C)C(=O)[C@H]1N[C@@H]1C1CC1)C(=O)N1CCC[C@H](N1)C(=O)OCC(C)(C)C2 [Example 136]
EC50 [1, 4]: < 5 µM
IC50 [2, 5]: < 10 nM
IC50 ([3]; K-Ras G12D, 5-day treatment): 100 to 1000 nM

CCn1c(-c2cccnc2[C@H](C)OC)c2c3cc(ccc31)-c1cc(O)cc(c1)C[C@H](NC(=O)[C@H](C(C)C)N(C)C(=O)CN(C)C(=O)[C@@H]1CN1CCCOC)C(=O)N1CCC[C@H](N1)C(=O)OCC(C)(C)C2 (stereo partly drawn) [Example 137]
EC50 [1, 4]: < 5 µM
IC50 [2, 5]: < 10 nM
IC50 ([3]; Homo sapiens, ASPC1, 120 h): 100 to 1000 nM

CCn1c(-c2cccnc2[C@H](C)OC)c2c3cc(ccc31)-c1cc(O)cc(c1)C[C@H](NC(=O)[C@H](C(C)C)N(C)C(=O)CNC(=O)[C@@H]1N[C@@H]1C1CC1)C(=O)N1CCC[C@H](N1)C(=O)OCC(C)(C)C2 [Example 141]
EC50 [1, 4]: < 5 µM
IC50 [2, 5]: 100 to 1000 nM
IC50 ([3]; Homo sapiens, ASPC1, 120 h): 100 to 1000 nM

CCn1c(-c2cccnc2[C@H](C)OC)c2c3cc(ccc31)-c1cc(O)cc(c1)C[C@H](NC(=O)[C@H](C(C)C)N(C)C(=O)CN(C)C(=O)[C@H]1CN1C(C)C)C(=O)N1CCC[C@H](N1)C(=O)OCC(C)(C)C2 (stereo partly drawn) [Example 142]
EC50 [1, 4]: < 5 µM
IC50 [2, 5]: < 10 nM
IC50 ([3]; Homo sapiens, ASPC1, 120 h): 100 to 1000 nM

CCC(C)N(C)C(=O)c1cncc(-c2c3c4cc(ccc4n2CC)-c2cc(O)cc(c2)C[C@H](NC(=O)[C@H](C(C)C)N(C)C(=O)CN(C)C(=O)[C@H]2CN2)C(=O)N2CCC[C@H](N2)C(=O)OCC(C)(C)C3)c1 (stereo partly drawn) [Example 144]
EC50 [1, 4]: < 5 µM
IC50 [2, 5]: 10 to 100 nM
IC50 ([3]; Homo sapiens, ASPC1, 120 h): 100 to 1000 nM

CCn1c(-c2cccnc2[C@H](C)OC)c2c3cc(ccc31)-c1cc(O)cc(c1)C[C@H](NC(=O)[C@H](C(C)C)N(C)C(=O)CN(C)C(=O)[C@@H]1CN1C(C)C)C(=O)N1CCC[C@H](N1)C(=O)OCC(C)(C)C2 (stereo partly drawn) [Example 148]
EC50 [1, 4]: < 5 µM
IC50 [2, 5]: < 10 nM
IC50 ([3]; Homo sapiens, ASPC1, 120 h): 100 to 1000 nM

CCn1c(-c2cccnc2[C@H](C)OC)c2c3cc(ccc31)-c1cc(O)cc(c1)C[C@H](NC(=O)[C@H](C(C)C)N(C)C(=O)CN(C)C(=O)[C@@H]1CN1)C(=O)N1CCC[C@H](N1)C(=O)OCC(C)(C)C2 [Example 150]
EC50 [1, 4]: < 5 µM
IC50 [2, 5]: < 10 nM
IC50 ([3]; Homo sapiens, ASPC1, 120 h): 100 to 1000 nM

CCn1c(-c2cccnc2[C@H](C)OC)c2c3cc(ccc31)-c1cc(O)cc(c1)C[C@H](NC(=O)[C@H](C(C)C)N(C)C(=O)CN(C)C(=O)[C@H]1CN1Cc1ccccc1F)C(=O)N1CCC[C@H](N1)C(=O)OCC(C)(C)C2 (stereo partly drawn) [Example 155]
EC50 [1, 4]: < 5 µM
IC50 [2, 5]: < 10 nM
IC50 ([3]; Homo sapiens, ASPC1, 120 h): 100 to 1000 nM

CCn1c(-c2cccnc2[C@H](C)OC)c2c3cc(ccc31)-c1cc(O)cc(c1)C[C@H](NC(=O)[C@H](C(C)C)N(C)C(=O)CN(C)C(=O)[C@H]1CN1Cc1ccccc1CO)C(=O)N1CCC[C@H](N1)C(=O)OCC(C)(C)C2 (stereo partly drawn) [Example 156]
EC50 [1, 4]: < 5 µM
IC50 [2, 5]: < 10 nM
IC50 ([3]; Homo sapiens, ASPC1, 120 h): 100 to 1000 nM

CCn1c(-c2cccnc2[C@H](C)OC)c2c3cc(ccc31)-c1cc(O)cc(c1)C[C@H](NC(=O)[C@H](C(C)C)N(C)C(=O)CN(C)C(=O)[C@H]1CN1CCOC)C(=O)N1CCC[C@H](N1)C(=O)OCC(C)(C)C2 (stereo partly drawn) [Example 159]
EC50 [1, 4]: < 5 µM
IC50 [2, 5]: < 10 nM
IC50 ([3]; Homo sapiens, ASPC1, 120 h): 100 to 1000 nM

CCn1c(-c2cccnc2[C@H](C)OC)c2c3cc(ccc31)-c1cc(O)cc(c1)C[C@H](NC(=O)[C@H](C(C)C)N(C)C(=O)CN(C)C(=O)[C@@H]1CN1CCOC)C(=O)N1CCC[C@H](N1)C(=O)OCC(C)(C)C2 (stereo partly drawn) [Example 160]
EC50 [1, 4]: < 5 µM
IC50 [2, 5]: < 10 nM
IC50 ([3]; Homo sapiens, ASPC1, 120 h): 100 to 1000 nM

CCn1c(-c2cccnc2[C@H](C)OC)c2c3cc(ccc31)-c1cc(O)cc(c1)C[C@H](NC(=O)[C@H](C(C)C)N(C)C(=O)CN(C)C(=O)[C@H]1CN1CCCOC)C(=O)N1CCC[C@H](N1)C(=O)OCC(C)(C)C2 (stereo partly drawn) [Example 201]
EC50 [1, 4]: < 5 µM
IC50 [2, 5]: < 10 nM
IC50 ([3]; Homo sapiens, ASPC1, 120 h): 100 to 1000 nM

CCn1c(-c2cc(N3CCN(C)CC3)cnc2[C@H](C)OC)c2c3cc(ccc31)-c1cc(O)cc(c1)C[C@H](NC(=O)[C@H](C1CCCC1)N(C)C(=O)CN(C)C(=O)[C@H]1CN1)C(=O)N1CCC[C@H](N1)C(=O)OCC(C)(C)C2 [Example 209, (2R)—N-(2-(((1S)-1-cyclopentyl-2-(((6^3S,4S)-1^1-ethyl-25-hydroxy-12-(2-((S)-1-methoxyethyl)-5-(4-methylpiperazin-1-yl)pyridin-3-yl)-10,10-dimethyl-5,7-dioxo-6^1,6^2,6^3,6^4,6^5,6^6-hexahydro-1^1H-8-oxa-1 (5,3)-indola-6 (1,3)-pyridazina-2 (1,3)-benzenacycloundecaphane-4-yl)amino)-2-oxoethyl) (methyl)amino)-2-oxoethyl)-N-methylaziridine-2-carboxamide]
EC50 [1, 4]: < 5 µM
IC50 [2, 5]: < 10 nM
IC50 ([3]; Homo sapiens, ASPC1, 120 h): < 10 nM

CCn1c(-c2cccnc2[C@H](C)OC)c2c3cc(ccc31)-c1cc(O)cc(c1)C[C@H](NC(=O)[C@H](C1CCCC1)N1CC[C@]3(CCN(C(=O)[C@@H]4N[C@@H]4C4CC4)C3)C1=O)C(=O)N1CCC[C@H](N1)C(=O)OCC(C)(C)C2 [Example 214, (2S)-2-cyclopentyl-2-((S)-7-((2R,3R)-3-cyclopropylaziridine-2-carbonyl)-1-oxo-2,7-diazaspiro[4.4]nonan-2-yl)-N-((6^3S,4S)-1^1-ethyl-25-hydroxy-1^2-(2-((S)-1-methoxyethyl)pyridin-3-yl)-10,10-dimethyl-5,7-dioxo-6^1,6^2,6^3,6^4,6^5,6^6-hexahydro-1^1H-8-oxa-1 (5,3)-indola-6 (1,3)-pyridazina-2 (1,3)-benzenacycloundecaphane-4-yl) acetamide]
EC50 ([1]; Homo sapiens, ASPC1, AsPC-1 KRAS G12D, read-out: pERK EC50): < 5 µM
IC50 ([2]; Homo sapiens, NCI-H358, 120 h, K-Ras G12C, 5-day treatment, read-out: H358 Cell Viability IC50): 10 to 100 nM
IC50 ([3]; Homo sapiens, ASPC1, 120 h, K-Ras G12D, 5-day treatment): 10 to 100 nM

CCn1c(-c2cccnc2[C@H](C)OC)c2c3cc(ccc31)-c1cc(O)cc(c1)C[C@H](NC(=O)[C@H](C(C)C)N(C)C(=O)CN(C)C(=O)[C@@]1(C)CN1)C(=O)N1CCC[C@H](N1)C(=O)OCC(C)(C)C2 [Example 256]
EC50 [1, 4]: < 5 µM
IC50 [2, 5]: 10 to 100 nM
IC50 ([3]; Homo sapiens, ASPC1, 120 h): 100 to 1000 nM

CCn1c(-c2cccnc2[C@H](C)OC)c2c3cc(ccc31)-c1cc(O)cc(c1)C[C@H](NC(=O)[C@H](C(C)C)N(C)C(=O)CN(C)C(=O)[C@]1(C)CN1)C(=O)N1CCC[C@H](N1)C(=O)OCC(C)(C)C2 [Example 257]
EC50 [1, 4]: < 5 µM
IC50 [2, 5]: 10 to 100 nM
IC50 ([3]; Homo sapiens, ASPC1, 120 h): 100 to 1000 nM

CCn1c(-c2cccnc2[C@H](C)OC)c2c3cc(ccc31)-c1cc(O)cc(c1)C[C@H](NC(=O)[C@H](C(C)C)N(C)C(=O)CN(C)C(=O)[C@@H]1N[C@@H]1C(F)(F)F)C(=O)N1CCC[C@H](N1)C(=O)OCC(C)(C)C2 [Example 258]
EC50 [1, 4]: < 5 µM
IC50 [2, 5]: 10 to 100 nM
IC50 ([3]; Homo sapiens, ASPC1, 120 h): 100 to 1000 nM

CCn1c(-c2cccnc2[C@H](C)OC)c2c3cc(ccc31)-c1cc(O)cc(c1)C[C@H](NC(=O)[C@H](C(C)C)N(C)C(=O)CN(C)C(=O)[C@H]1N[C@H]1C(F)(F)F)C(=O)N1CCC[C@H](N1)C(=O)OCC(C)(C)C2 [Example 259]
EC50 [1, 4]: < 5 µM
IC50 [2, 5]: 10 to 100 nM
IC50 ([3]; Homo sapiens, ASPC1, 120 h): 100 to 1000 nM

CCn1c(-c2cccnc2[C@H](C)OC)c2c3cc(ccc31)-c1cc(O)cc(c1)C[C@H](NC(=O)[C@H](C(C)C)N(C)C(=O)CN(C)C(=O)[C@H]1N[C@@H]1C(F)(F)F)C(=O)N1CCC[C@H](N1)C(=O)OCC(C)(C)C2 [Example 261]
EC50 [1, 4]: < 5 µM
IC50 [2, 5]: < 10 nM
IC50 ([3]; Homo sapiens, ASPC1, 120 h): 100 to 1000 nM

CC[C@H]1N[C@H]1C(=O)N(C)CC(=O)N(C)[C@H](C(=O)N[C@H]1Cc2cc(O)cc(c2)-c2ccc3c(c2)c(c(-c2cccnc2[C@H](C)OC)n3CC)CC(C)(C)COC(=O)[C@@H]2CCCN(N2)C1=O)C(C)C [Example 262]
EC50 [1, 4]: < 5 µM
IC50 [2, 5]: 10 to 100 nM
IC50 ([3]; Homo sapiens, ASPC1, 120 h): 100 to 1000 nM
